Assay results as given in ChEMBL document CHEMBL3259779, “Discovery of pyrazolopyridones as a novel class of noncovalent DprE1 inhibitor with potent anti-mycobacterial activity” (J Med Chem, 2014).
Values after ≈ are worked out from the molar mass of the structure shown.

Key:
[1] = system: Mycobacterium tuberculosis; assay: Antimycobacterial activity against Mycobacterium tuberculosis H37Rv ATCC 27294 assessed as growth inhibition after 5 days by microdilution method; format: functional; conditions: H37Rv ATCC 27294, 120 h
[2] = Aqueous kinetic solubility of the compound in 0.1 M phosphate buffer at pH 7.4 by UV-MS analysis; format: physicochemical; conditions: read-out: Kinetic_solubility
[3] = Octanol-water partition coefficient, log D of the compound by shake flask method; format: physicochemical
[4] = Fraction unbound in human plasma at 20 uM by equilibrium dialysis technique; format: ADME, cell-free
[5] = Selectivity index, ratio of IC50 human A549 cells to MIC for Mycobacterium tuberculosis; format: toxicity, cell-based; conditions: read-out: Selectivity Index
[6] = system: Mycobacterium tuberculosis; assay: Antimycobacterial activity against Mycobacterium tuberculosis H37Rv ATCC 27294 assessed as reduction of colony forming units by microdilution method; format: functional
[7] = Inhibition of Mycobacterium smegmatis DprE1 expressed in Escherichia coli Rosetta cells using farnesyl-phosphoryl-beta-D-ribofuranose as substrate by fluorescence analysis; design: species or system Mycolicibacterium smegmatis
[8] = system: Mycobacterium tuberculosis; assay: Antimycobacterial activity against wild type Mycobacterium tuberculosis H37Rv assessed as growth inhibition by resazurin assay; format: functional
[9] = system: Mycobacterium tuberculosis; assay: Antimycobacterial activity against Mycobacterium tuberculosis Beijing (E-47/94) assessed as growth inhibition after 2 to 3 weeks by turbidometry; format: functional
[10] = system: Mycobacterium tuberculosis; assay: Antimycobacterial activity against Mycobacterium tuberculosis H37Rv ATCC 27294 assessed as growth inhibition after 2 to 3 weeks by turbidometry; format: functional
[11] = system: Mycobacterium tuberculosis; assay: Antimycobacterial activity against Mycobacterium tuberculosis D-211 assessed as growth inhibition after 2 to 3 weeks by turbidometry; format: functional
[12] = Inhibition of Mycobacterium smegmatis DprE1 C394G mutant expressed in Escherichia coli Rosetta cells using farnesyl-phosphoryl-beta-D-ribofuranose as substrate by fluorescence analysis; design: species or system Mycolicibacterium smegmatis
[13] = Inhibition of Mycobacterium smegmatis DprE1 Y321H mutant expressed in Escherichia coli Rosetta cells using farnesyl-phosphoryl-beta-D-ribofuranose as substrate by fluorescence analysis; design: species or system Mycolicibacterium smegmatis
[14] = system: Mycolicibacterium smegmatis; assay: Ratio of IC50 for Mycobacterium smegmatis DprE1 Y321H mutant expressed in Escherichia coli Rosetta cells to IC50 for wild type Mycobacterium smegmatis DprE1 expressed in Escherichia coli Rosetta cells
[15] = system: Mycolicibacterium smegmatis; assay: Ratio of IC50 for wild type Mycobacterium smegmatis DprE1 expressed in Escherichia coli Rosetta cells to IC50 for Mycobacterium smegmatis DprE1 C394G mutant expressed in Escherichia coli Rosetta cells
[16] = system: Mycolicibacterium smegmatis; assay: Ratio of IC50 for Mycobacterium smegmatis DprE1 C394G mutant expressed in Escherichia coli Rosetta cells to IC50 for wild type Mycobacterium smegmatis DprE1 expressed in Escherichia coli Rosetta cells
[17] = system: Mycobacterium tuberculosis; assay: Antimycobacterial activity against Mycobacterium tuberculosis H37Rv infected in human THP-1 cells assessed as log reduction in colony forming units at 16 uM incubated for 7 days measured after 21 to 28 days; format: functional
[18] = system: Mycobacterium tuberculosis; assay: Antimycobacterial activity against Mycobacterium tuberculosis H37Rv assessed as bacterial killing by two-fold serial dilution method; format: functional, organism-based; conditions: TDE = time-dependent effect
[19] = system: Mycobacterium tuberculosis; assay: Antimycobacterial activity against Mycobacterium tuberculosis H37Rv assessed as log reduction in colony forming units on day 10 by two-fold serial dilution method; format: functional

Row | SMILES | MIC [1] [µM] | MBC [6] [µM] | IC50 [7] [nM] | MIC [8] [µM] | other results
1 | Cc1nn(-c2ccccn2)c2[nH]c(=O)c(CNCc3cccc(C(F)(F)F)c3)cc12 | > 100 |  |  |  | 
2 | Cc1ccc(C(F)(F)F)cc1CNCc1cc2c(C(C)C)nn(-c3ccccc3)c2[nH]c1=O | 0.4 (≈ 0.182 µg/mL) | < 0.5 | < 5 |  | solubility kinetic [2]: 10 µM (≈ 4.54 µg/mL); logD [3]: > 4.4; fraction unbound at 20 µM [4]: < 0.01; selectivity ratio [5]: 35
3 | CCOC(=O)NC(=O)c1ccsc1NC(=O)c1nc2ccccc2s1 |  |  |  | 0.5 (≈ 0.188 µg/mL) | 
4 | Cc1nn(-c2ccccc2)c2[nH]c(=O)c(CNCc3cccc(C(F)(F)F)c3)cc12 | 3.1 (≈ 1.28 µg/mL) | 8.5 (≈ 3.51 µg/mL) | 400 | > 0.1 | MIC [9]: 3.1 µM (≈ 1.28 µg/mL); MIC [10]: 3.1 µM (≈ 1.28 µg/mL); MIC [11]: 3.1 µM (≈ 1.28 µg/mL)
5 | COc1nc2c(cc1CNCc1cccc(C(F)(F)F)c1)c(C)nn2-c1ccccc1 | > 100 |  | > 10000 |  | 
6 | Cc1nn(-c2ccccc2)c2[nH]c(=O)c(C(=O)NCc3cccc(C(F)(F)F)c3)cc12 | > 100 |  | 1000 |  | 
7 | O=c1[nH]c2c(cc1CNCc1cccc(C(F)(F)F)c1F)c(C1CC1)nn2-c1ccccc1 | 1.6 (≈ 0.73 µg/mL) | 4.1 (≈ 1.87 µg/mL) | < 5 | 0.003 (≈ 0.00137 µg/mL) | IC50 [12]: 60 nM; IC50 [13]: 8200 nM; Ratio IC50 [14]: 38; Ratio IC50 [15]: 4
8 | Cc1nn(-c2ccccc2)c2[nH]c(=O)c(CN(C)Cc3cccc(C(F)(F)F)c3)cc12 | 1 (≈ 0.426 µg/mL) |  | 60 |  | 
9 | Cc1ccc(C(F)(F)F)cc1CNCc1cc2c(C)nn(-c3ccccc3)c2[nH]c1=O | 0.8 (≈ 0.341 µg/mL) | 1.2 (≈ 0.512 µg/mL) | 7 |  | IC50 [12]: 10 nM; IC50 [13]: 1500 nM; Ratio IC50 [16]: 1; Ratio IC50 [14]: 150; solubility kinetic [2]: 55 µM (≈ 23.5 µg/mL); logD [3]: 3.7; fraction unbound at 20 µM [4]: < 0.01; selectivity ratio [5]: 20
10 | O=c1[nH]c2c(cc1CNCc1cccc(C(F)(F)F)n1)c(C1CC1)nn2-c1ccccc1 | 3.1 (≈ 1.36 µg/mL) | 5.6 (≈ 2.46 µg/mL) | 50 | > 0.1 | IC50 [12]: 20 nM; IC50 [13]: 6100 nM; Ratio IC50 [14]: 40; solubility kinetic [2]: 153 µM (≈ 67.2 µg/mL); logD [3]: 3.2; fraction unbound at 20 µM [4]: 0.011; selectivity ratio [5]: 20; Ratio IC50 [15]: 6
11 | Cc1ccc(C(F)(F)F)nc1CNCc1cc2c(C3CC3)nn(-c3ccccc3)c2[nH]c1=O | 1.5 (≈ 0.68 µg/mL) | 1.6 (≈ 0.726 µg/mL) | 10 |  | solubility kinetic [2]: 1 µM (≈ 0.453 µg/mL); logD [3]: 3.4; fraction unbound at 20 µM [4]: < 0.01; selectivity ratio [5]: 10
12 | Cc1nn(C)c2[nH]c(=O)c(CNCc3cccc(C(F)(F)F)c3)cc12 | > 100 |  | > 100000 |  | 
13 | O=c1[nH]c2c(cc1CNCc1cc(C(F)(F)F)ccc1F)c(C1CC1)nn2-c1ccccc1 | 1.6 (≈ 0.73 µg/mL) | 4.4 (≈ 2.01 µg/mL) | 40 | 0.002 (≈ 0.000913 µg/mL) | IC50 [12]: 10 nM; IC50 [13]: 4500 nM; Ratio IC50 [14]: 107; Ratio IC50 [15]: 4
14 | Cc1ccc(C(F)(F)F)cc1CNCc1cc2c(C3CC3)nn(-c3ccccc3)c2[nH]c1=O | 0.1 (≈ 0.0452 µg/mL) | < 0.5 | 10 | 0.002 (≈ 0.000905 µg/mL) | log10cfu [17]: 1; IC50 [13]: 7400 nM; Ratio IC50 [16]: 1; Ratio IC50 [14]: 740; solubility kinetic [2]: < 1 µM; logD [3]: 3.9; fraction unbound at 20 µM [4]: < 0.01; selectivity ratio [5]: > 250; Activity [18]: tde; log10cfu [19]: >4
15 | COc1ncnc(Cn2cc(C(=O)NCCF)c3ncccc32)c1C |  |  | 5 | 1.51 (≈ 0.52 µg/mL) | 
16 | Cc1nn(-c2ccccc2)c2[nH]c(=O)c(CN3CCc4ccc(C(F)(F)F)cc4C3)cc12 | > 100 |  | 6200 |  | 

Row | SMILES | MIC [1] [µM] | MBC [6] [µM] | IC50 [7] [nM] | MIC [8] [µM] | other results
17 | C[C@@H](NC(=O)c1cc([N+](=O)[O-])cc(C(F)(F)F)c1)c1ccccc1 |  |  |  | 0.943 (≈ 0.319 µg/mL) | 
18 | C[C@H]1COC2(CCN(c3nc(=O)c4cc(C(F)(F)F)cc([N+](=O)[O-])c4s3)CC2)O1 [BTZ-043] |  |  | 5 | 0.003 (≈ 0.00129 µg/mL) | 
19 | O=c1[nH]c2c(cc1CNCc1cccc(C(F)(F)F)c1)c(C1CC1)nn2-c1ccccc1 | 1.5 (≈ 0.658 µg/mL) | 2.8 (≈ 1.23 µg/mL) | 40 | > 0.1 | MIC [9]: 1.6 µM (≈ 0.702 µg/mL); MIC [10]: 1.6 µM (≈ 0.702 µg/mL); MIC [11]: 1.6 µM (≈ 0.702 µg/mL); solubility kinetic [2]: 1 µM (≈ 0.438 µg/mL); logD [3]: 3.9; fraction unbound at 20 µM [4]: 0.01; selectivity ratio [5]: 10
20 | CC[C@@H](CO)NCCN[C@@H](CC)CO [ETHAMBUTOL] |  |  |  |  | MIC [9]: 2 µM (≈ 0.409 µg/mL); MIC [10]: 2 µM (≈ 0.409 µg/mL); MIC [11]: 2 µM (≈ 0.409 µg/mL)
21 | NNC(=O)c1ccncc1 [ISONIAZID] |  |  |  | 5 (≈ 0.686 µg/mL) | MIC [9]: 0.2 µM (≈ 0.0274 µg/mL); MIC [10]: 0.2 µM (≈ 0.0274 µg/mL); MIC [11]: 0.2 µM (≈ 0.0274 µg/mL)
22 | CO[C@H]1/C=C/O[C@@]2(C)Oc3c(C)c(O)c4c(O)c(c(/C=N/N5CCN(C)CC5)c(O)c4c3C2=O)NC(=O)/C(C)=C\C=C\[C@H](C)[C@H](O)[C@@H](C)[C@@H](O)[C@@H](C)[C@H](OC(C)=O)[C@@H]1C [RIFAMPIN] |  |  |  |  | MIC [9]: 0.02 µM (≈ 0.0165 µg/mL); MIC [10]: 0.02 µM (≈ 0.0165 µg/mL); MIC [11]: 0.02 µM (≈ 0.0165 µg/mL)
23 | Cc1ccc(CNCc2cc3c(C)nn(-c4ccccc4)c3[nH]c2=O)cc1C | 25 (≈ 9.31 µg/mL) | 50 (≈ 18.6 µg/mL) | 1200 |  | 
24 | Cc1nn(-c2ccccc2)c2[nH]c(=O)c(CNCc3cccc(C#N)c3)cc12 | > 100 |  | 2600 |  | 
25 | CN[C@@H]1[C@H](O[C@H]2[C@H](O[C@H]3[C@H](O)[C@@H](O)[C@H](N=C(N)N)[C@@H](O)[C@@H]3N=C(N)N)O[C@@H](C)[C@]2(O)C=O)O[C@@H](CO)[C@H](O)[C@H]1O [STREPTOMYCIN] |  |  |  |  | MIC [9]: 0.3 µM (≈ 0.174 µg/mL); MIC [10]: 0.3 µM (≈ 0.174 µg/mL); MIC [11]: 0.3 µM (≈ 0.174 µg/mL)
26 | Cc1nn(-c2ccccc2)c2[nH]c(=O)c(CNCc3cccc(F)c3)cc12 | 75 (≈ 27.2 µg/mL) | 100 (≈ 36.2 µg/mL) | 2000 |  | 
27 | Cc1ccc(-n2nc(C)c3cc(CNCc4cccc(C(F)(F)F)c4)c(=O)[nH]c32)cc1 | 12.5 (≈ 5.33 µg/mL) | 12.5 (≈ 5.33 µg/mL) | 600 |  | 
28 | Cc1cccc(CNCc2cc3c(C)nn(-c4ccccc4)c3[nH]c2=O)c1 | 100 (≈ 35.8 µg/mL) | 100 (≈ 35.8 µg/mL) | 2800 |  | 
29 | Cc1nn(-c2ccccc2)c2[nH]c(=O)c(CNCc3ccccc3)cc12 | > 100 |  | 1400 |  | 
30 | Cc1nn(-c2ccccc2)c2c1cc(CNCc1cccc(C(F)(F)F)c1)c(=O)n2C | > 100 |  | > 10000 |  | 
31 | CC1COc2c(N3CCN(C)CC3)c(F)cc3c(=O)c(C(=O)O)cn1c23 (stereo unspecified) [OFLOXACIN] |  |  |  |  | MIC [9]: 0.7 µM (≈ 0.253 µg/mL); MIC [10]: 0.7 µM (≈ 0.253 µg/mL); MIC [11]: 0.7 µM (≈ 0.253 µg/mL)
